Data published in patent publication US11498909B2, “Compound acting as antibiotics” (KBP BIOSCIENCES CO., LTD., priority 2018, dated 2022).
≈ marks a conversion by molar mass, not a printed value. Like-named read-outs stand apart in the source and are kept apart here.

Legend:
[1] = tested on: polymyxin-resistant mcr-1 positive Enterobacteriaceae; test: In vitro antibacterial effect on polymyxin-resistant mcr-1 positive Enterobacteriaceae, agar dilution MIC (Experiment 2); type: cell-based, Escherichia coli; settings: for MIC50 / MIC90: Escherichia coli; for MIC50: read-out: MIC50 Value, polymyxin-resistant mcr-1 positive Escherichia coli, agar dilution; for MIC90: read-out: MIC90 Value, polymyxin-resistant mcr-1 positive Escherichia coli, agar dilution; for MIC90 Value / MIC50 Value: polymyxin-resistant mcr-1 positive Escherichia coli, agar dilution
Experimental: Tested samples: the compounds of the present invention, prepared according to the methods of the preparation examples;
Polymyxin E sulphate, Ampicillin, Cefotaxime, Gentamicin, Ciprofloxacin, Tetracycline, and Bactrim were all commercial products, the following experiments were carried out according to the content of an effective ingredient in each commercial product.
Tested strains: Escherichia coli carrying mcr-1 gene isolated from animals and Escherichia coli ATCC25922, a quality control strain, were provided by South China Agricultural University.
With reference to the agar dilution method in CLSI, the MIC value of the tested drugs to the polymyxin resistant mcr-1 positive Escherichia coli were determined.
Preparation of drug-containing agar plates: a drug solution with the highest concentration was prepared for each compound; the drug solution with the highest concentration was subjected to the double dilution; for each of dilution gradient, 1 mL (20×drug working solution) of the drug solution was added to 19 mL MH agar at 45-50° C.; immediately after addition, the agar and the drug solution were uniformly mixed to give a drug-containing agar plate with final concentrations of […], and the plate was solidified for later use; and in the meanwhile, a growth control group was arranged.
Inoculum preparation and culture: the strains stored at −80° C. were rejuvenated and formulated with broth so that the turbidity reached or exceeded 0.5 #McFarland unit; a 96-well plate was used as the inoculation tank, and the bacterial solution was diluted with sodium chloride injection so that the content of bacteria inoculated on the agar was 10^4 CFU/point. A multi-point inoculation instrument was used to inoculate the bacterial solution to the surface of the labeled drug-containing agar. After the water in the inoculation point was completely absorbed by the agar, the plate was placed upside down in a 37° C. constant-temperature incubator and incubated for 16-20 hours.

Escherichia coli = test: In vitro antibacterial activity, agar dilution MIC (Experiment 1); type: cell-based; settings: agar dilution; for MIC50: read-out: MIC50; for MIC90: read-out: MIC90
Experimental: (§1) Tested strains: all the clinically separated strains below were purchased from public facilities.
(§2) Escherichia coli ATCC25922, Pseudomonas aeruginosa ATCC27853, Klebsiella pneumoniae ATCC700603, and the like.
(§3) Tested Samples: Imipenem, Ceftazidime: Commercial Products, the Following Experiments were Carried Out According to the Content of an Effective Ingredient in Each Commercial Product;
(§4) The compounds of the present invention, their chemical names, and preparation methods are shown in the preparation example of each compound.
(§5) Experiment method: Agar dilution method, refer to National Committee for Clinical Laboratory Standards. 2006. Methods for Dilution Antimicrobial Susceptibility Tests for Bacteria That Grow Aerobically; Approved Standard—Seventh Edition M7-A7, Vol 26, No. 2, 2006, to determine the MIC of the compound. MIC represents the minimum inhibitory concentration.

Pseudomonas aeruginosa = test: as above; type: cell-based
Experimental: as §1, §2, §3, §4, §5

[2] = Pharmacokinetics (PK) determination in SD rats (Experiment 4); type: in vivo; settings: plasma; for AUC(0-t) / AUC(0-inf): Sprague-Dawley (SD), rat, iv, 2 mg/kg; for AUC(0-inf): read-out: AUCINF_obs
Experimental: The compound of the present invention, self-prepared and dissolved in a suitable solvent.
Instrument and equipment: API4000 LC-MS/MS
Chromatographic column: Waters XBridge C18(2.1×50 mm, […])
Rat blood collection: Animals were fixed. The animal's tail was heated with a water bathtub 10 minutes before each time point. About 200 μL of the blood was collected through the caudal vein. After the blood collection, the blood was placed in an anticoagulation tube containing heparin sodium. The blood samples were centrifuged at 8000 rpm for 6 minutes at 4° C. to obtain plasma samples. The plasma must be prepared within 30 minutes after the blood collection. The plasma was stored in a refrigerator at −80° C. before the test.
(1) Test samples were removed from the refrigerator (−80° C.), naturally thawed at room temperature, and then vortexed for 5 minutes;
(2) 20 μL sample was precisely pipetted to a 1.5 mL centrifuge tube;
(3) 200 μL of the internal standard solution was added;
(4) The mixture was vortexed for 5 minutes and centrifuged for 5 minutes (12000 revolutions per minute);
(5) 100 μL of the supernate was precisely pipetted, 100 μL of water was added, the mixture was vortexed for 5 minutes, and the sample was sent to LC-MS/MS for analysis.
The results of the concentrations of the test samples (plasma samples) were output with Analyst 1.6.1 of AB Corporation. The meaning value, the standard deviation, the coefficient of variation, and other parameters (not necessary to calculate the parameter that can be directly output from Analyst 1.6.1) were calculated with Microsoft Excel, and the PK parameter is calculated with Pharsight Phoenix 6.1 software.

[3] = agar dilution (Table 3), read-out: MIC90
[4] = agar dilution (Table 3), read-out: MIC50

| Molecule | MIC50 [1] [µg/mL] | MIC90 [1] [µg/mL] | MIC90 (Pseudomonas aeruginosa; [3]) [µg/mL] | Cl_obs ([2]; IV 2 mg/kg) [mL/min/kg] | Vz_obs ([2]; IV 2 mg/kg) [L/kg] | t1/2z ([2]; IV 2 mg/kg) [min] | λ_z ([2]; IV 2 mg/kg) [h⁻¹] | AUC(0-t) [2] [ng·h/mL] | AUC(0-inf) [2] [ng·h/mL] | MIC50 (Pseudomonas aeruginosa; [4]) [µg/mL] | also measured |
| --- | --- | --- | --- | --- | --- | --- | --- | --- | --- | --- | --- |
| CC1(C)S[C@@H]2[C@H](NC(=O)[C@H](N)c3ccccc3)C(=O)N2[C@H]1C(=O)O [Ampicillin] | > 128 | > 128 |  |  |  |  |  |  |  |  |  |
| CO/N=C(\C(=O)N[C@@H]1C(=O)N2C(C(=O)O)=C(COC(C)=O)CS[C@H]12)c1csc(N)n1 [Cefotaxime] | 2 (≈ 4.39 µM) | 128 (≈ 281 µM) |  |  |  |  |  |  |  |  |  |
| O=C(O)c1cn(C2CC2)c2cc(N3CCNCC3)c(F)cc2c1=O [Ciprofloxacin] | 4 (≈ 12.1 µM) | 32 (≈ 96.6 µM) |  |  |  |  |  |  |  |  |  |
| CNC(=O)C(C(=O)NO)N(C)C(=O)c1ccc(C#CC#Cc2ccc(CO)o2)cc1 (stereo not drawn) [Compound 5, N-methyl-N-(3-methylamino-1-(hydroxyamino)-1,3-dioxopropan-2-yl)-4-((5-(hydroxymethyl)furan-2-yl)buta-1,3-diynyl)benzamide] |  | 0.5 (≈ 1.22 µM) | 1 (≈ 2.44 µM) | 10.3 ± 1.3 | 0.63 ± 0.02 | 42.6 ± 6.6 | 0.99 ± 0.15 | 8110 ± 1050 | 8150 ± 1040 |  | MIC50 (Escherichia coli): 2 µg/mL (≈ 4.89 µM); MIC90 (Escherichia coli): 4 µg/mL (≈ 9.77 µM); MIC50 (Pseudomonas aeruginosa): 0.125 µg/mL (≈ 0.305 µM); MIC90 Value [1]: 1 µg/mL (≈ 2.44 µM) |
| CNCc1ccc(C#CC#Cc2ccc(C(=O)N[C@H](C(=O)NO)[C@@H](C)O)cc2)o1 [Compound 15, N-((2S,3R)-3-hydroxy-1-(hydroxyamino)-1-oxobutan-2-yl)-4-((5-((methylamino)methyl)furan-2-yl)buta-1,3-diynyl)benzamide] |  |  | 2 (≈ 5.06 µM) | 25.2 ± 4.5 | 1.57 ± 0.28 | 44.4 ± 13.2 | 0.99 ± 0.29 | 1330 ± 108 | 1350 ± 222 | 0.5 (≈ 1.26 µM) |  |
| Cc1cc(C#CC#Cc2ccc(C(=O)N[C@H](C(=O)NO)[C@@H](C)O)cc2)oc1CO [Compound 16, N-((2S,3R)-3-hydroxy-1-(hydroxyamino)-1-oxobutan-2-yl)-4-((5-(hydroxymethyl)-4-methylfuran-2-yl)buta-1,3-diynyl)benzamide] |  |  | 2 (≈ 5.05 µM) | 12 ± 0.67 | 0.47 ± 0.16 | 27 ± 8.4 | 1.67 ± 0.58 | 2780 ± 130 | 2790 ± 136 | 0.5 (≈ 1.26 µM) |  |
| C[C@@H](O)[C@H](NC(=O)c1ccc(C#CC#Cc2ccco2)cc1)C(=O)NO [Compound 20] |  |  |  | 107 ± 16 | 3.77 ± 0.53 | 24.6 ± 0.6 | 1.70 ± 0.03 |  |  |  | MIC50 (Pseudomonas aeruginosa; agar dilution (Table 3)): 0.25 µg/mL (≈ 0.71 µM); MIC90 (Pseudomonas aeruginosa; agar dilution (Table 3)): 1 µg/mL (≈ 2.84 µM); AUCINF_obs ([2]; IV 2 mg/kg): 791 ± 117 ng·h/mL; AUClast ([2]; IV 2 mg/kg): 778 ± 116 ng·h/mL |
| C[C@@H](O)[C@H](NC(=O)c1ccc(C#CC#Cc2ccc(COCCOCCO)o2)cc1)C(=O)NO [Compound 21, N-((2S,3R)-3-hydroxy-1-(hydroxyamino)-1-oxobutan-2-yl)-4-((5-((2-(2-hydroxyethoxy)ethoxy)methyl)furan-2-yl)buta-1,3-diynyl)benzamide] |  |  | 4 (≈ 8.5 µM) | 24.2 ± 4.83 | 0.33 ± 0.07 | 9.6 ± 0.6 | 4.38 ± 0.25 | 1400 ± 256 | 1420 ± 255 | 1 (≈ 2.13 µM) |  |
| C[C@@H](O)[C@H](NC(=O)c1ccc(C#CC#Cc2ccc(CNCCCN3CCOCC3)o2)cc1)C(=O)NO [Compound 22, N-((2S,3R)-3-hydroxy-1-(hydroxyamino)-1-oxobutan-2-yl)-4-((5-((3-morpholinopropylamino)methyl)furan-2-yl)buta-1,3-diynyl)benzamide] |  |  | > 16 |  |  |  |  |  |  | 4 (≈ 7.87 µM) | MIC50 (Escherichia coli): 0.5 µg/mL (≈ 0.983 µM); MIC90 (Escherichia coli): 2 µg/mL (≈ 3.93 µM) |
| Cn1nc(CO)cc1-c1ccc(C#Cc2ccc(C(=O)N[C@H](C(=O)NO)C(C)(C)N)cc2)cc1 [Compound 37, (S)—N-(3-amino-1-(hydroxyamino)-3-methyl-1-oxobutan-2-yl)-4-((4-(3-(hydroxymethyl)-1-methyl-1H-pyrazol-5-yl)phenyl)ethynyl)benzamide] |  |  |  | 78.5 ± 5.5 | 17.6 ± 4.22 | 158 ± 45.6 | 0.28 ± 0.08 | 402 ± 21.6 | 426 ± 28.5 | 1 (≈ 2.17 µM) |  |
| C[C@@H](O)[C@H](NC(=O)c1ccc(C#CC#Cc2ccc(CNCCOCCO)s2)cc1)C(=O)NO [Compound 42, N-((2S,3R)-3-hydroxy-1-(hydroxyamino)-1-oxobutan-2-yl)-4-((5-((2-(2-hydroxyethoxy)ethylamino)methyl)thienyl-2-yl)buta-1,3-diynyl)benzamide] |  |  | 4 (≈ 8.24 µM) | 84.3 ± 9.17 | 2.16 ± 0.30 | 18 ± 0.6 | 2.35 ± 0.07 | 396 ± 41 | 398 ± 41 | 0.5 (≈ 1.03 µM) |  |
| C[C@@H](O)[C@H](NC(=O)c1ccc(C#CC#Cc2ccc(CN3CCOCC3)s2)cc1)C(=O)NO [Compound 43, N-((2S,3R)-3-hydroxy-1-(hydroxyamino)-1-oxobutan-2-yl)-4-((5-(morpholinomethyl)thienyl-2-yl)buta-1,3-diynyl)benzamide] |  |  | 4 (≈ 8.56 µM) | 36.5 ± 3.67 | 0.88 ± 0.07 | 16.8 ± 0.6 | 2.48 ± 0.06 | 919 ± 100 | 921 ± 100 | 1 (≈ 2.14 µM) |  |
| C[C@@H](O)[C@H]1C(=O)N2C(C(=O)O)=C(SCCN=CN)C[C@H]12 [Imipenem, reference compound] | 0.125 (≈ 0.418 µM) | 4 (≈ 13.4 µM) | 16 (≈ 53.4 µM) |  |  |  |  |  |  | 2 (≈ 6.68 µM) |  |
| CN(C)[C@@H]1C(O)=C(C(N)=O)C(=O)[C@@]2(O)C(O)=C3C(=O)c4c(O)cccc4[C@@](C)(O)[C@H]3C[C@@H]12 [Tetracycline] | 32 (≈ 72 µM) | 64 (≈ 144 µM) |  |  |  |  |  |  |  |  |  |
| Gentamicin |  |  |  |  |  |  |  |  |  |  | MIC50 Value [1]: 4 µg/mL; MIC90 Value [1]: 64 µg/mL |
| Polymyxin E sulphate |  |  |  |  |  |  |  |  |  |  | MIC50 Value [1]: 16 µg/mL; MIC90 Value [1]: 32 µg/mL |
